Experimental data from US20200383985A1, “Inhibitors of Protease Activated Receptor-2” (Endosome Therapeutics, Inc., priority 2017, published 2020).
Starred links: 1 amine or outer side, 2 acyl side, 3 side chain; linkers in the order of their positions; H or OH if unused. Positions of bridges follow the written chain, without caps; N, C: chain ends. Non-standard residues stand in square brackets, D forms with d. Residues, ends and D or L forms follow the SMILES beside them. *: point of attachment. Leu(3R-OH,Nα-propionyl) = CCC(=O)N[C@H](C(=O)*)[C@H](O)C(C)C; X1 = CC(C)[C@@H](O[*:3])[C@H](N[*:1])C(=O)[*:2]; NMeT = CN[C@H](C(=O)O)[C@@H](C)O; dPhLac = O=C(O)[C@H](O)Cc1ccccc1; NMeA = CN[C@@H](C)C(=O)O; NMeDha = C=C(NC)C(=O)O

Columns and labels:
Assay type in all cases: cell-based
[1] = tested on: cytosolic and nuclear ERK; test: FRET assays of cytosolic and nuclear ERK in HEK293 cells; conditions: UBO-QIC 100 nM, G66983 1 μM; for trypsin-stimulated activation of cytosolic ERK: AG1478 1 μM
Protocol: Trypsin-induced ERK signaling mediated by endosomal PAR2 signaling was investigated in HEK293 cells expressing Flag-PAR2-HA11 and FRET biosensors for cytosolic and nuclear ERK (CytoEKAR, NucEKAR), plasma membrane and cytosolic PKC (pmCKAR, CytoCKAR), and plasma membrane and cytosolic cAMP (pmEpac, CytoEpac). […] I-343 (10 μM) but not SCH530348 (100 nM) inhibited trypsin activation of cytosolic and nuclear ERK (FIG. 5G). PS2 and DynK44E inhibited trypsin-stimulated activation of cytosolic and nuclear ERK when compared to PS2 inact and DynWT controls (FIG. 5H, 5I, 17G-J). AG1478 (1 μM), an inhibitor of EGF receptor tyrosine kinase (Levitzki, A. & Gazit, A. Science 1995, 267(5205): 1782-1788), UBO-QIC (100 nM), which inhibits Gαq and certain Gβγ signals ([…]), and G66983 (1 μM), which inhibits all isoforms of PKC (Gschwendt, M, et al., FEBS Lett 1996, 392(2): 77-80), suppressed trypsin-stimulated activation of cytosolic ERK (FIGS. 5J and 17K).
HEK293 cells were cultured in DMEM supplemented with 10% (v/v) FBS (5% CO2, 37° C.). When necessary serum restriction was achieved by replacing culture medium with DMEM containing 0.5% FBS overnight. Cells were transiently transfected using polyethylenimine (PEI) (1:6 DNA:PEI).
HEK293 cells were transiently transfected in 10 cm dishes (˜50% confluency) with Flag-PAR2-HA (2.5 μg) and FRET biosensors CytoEKAR or NucEKAR (2.5 μg) (Jensen, D. D. et al., Sci Transl Med. 2017, 9(392), eaal3447; Thomsen, A. R. B., et al., Cell 2016, 166(4): 907-919). In experiments examining the role of dynamin, cells were transfected with FLAG-PAR2-HA (1.25 μg), FRET biosensor (1.25 μg) and either DynWT-HA, DynK44E-HA or pcDNA3.1 (2.5 μg). At 24 h after transfection, cells were seeded on ViewPlate-96 well plates (PerkinElmer). FRET was assessed 72 h post-transfection, following overnight serum restriction. Cells were equilibrated in HBSS-HEPES (30 min, 37° C.). FRET was measured using a PHERAstar FSX Microplate Reader (BMG LabTech). For CFP/YFP emission ratio analysis, cells were sequentially excited using a CFP filter (425/10 nm) with emission measured using YFP (550/50 nm) and CFP (490/20 nm) filters. FRET was measured before and after stimulation with trypsin (10 nM), NE (100 nM), CS (100 nM), phorbol 12,13-dibutyrate, PDBu (positive control, 1 μM), or vehicle. FRET ratios (donor/acceptor intensity for EKAR, or acceptor/donor intensity for CKAR and Epac) were calculated and corrected to baseline and vehicle treatments to determine ligand-induced FRET (ΔFRET). Treatment effects were determined by comparison of area under the curve values. Signalling inhibitors were dissolved in HBSS-HEPES. PS2 and PS2 inact were dissolved in HBSS-HEPES+1% DMSO. Cells were incubated with UBO-QIC (100 nM), AG1478 (1 μM), G66983 (1 μM), PS2 or PS2 inact (30 μM) or vehicle (30 min preincubation, inclusion throughout).

mouse DRG neurons [2] = test: Patch clamp rheobase of DRG neurons: protease-induced hyperexcitability of nociceptors; conditions: PD98059 50 μM, GF109203X 10 μM
mouse DRG neurons [3] = test: Patch clamp rheobase of DRG neurons: IBS-D biopsy supernatant-induced hyperexcitability; conditions: I-343 10 μM, Dy4 30 μM, PD98059 50 μM
Protocol: An investigation as whether proteases from mucosal biopsies of IBS patients cause a persistent hyperexcitability of nociceptors was conducted by a mechanism that entails endosomal signaling of PAR2. Biopsies of colonic mucosa from patients with diarrhea-predominant IBS (IBS-D) or healthy control (HC) subjects were placed in culture medium (24 h, 37° C.). Mouse DRG neurons were then exposed to biopsy supernatants (30 min, 37° C.) and washed. Rheobase was measured 30 min after washing to assess persistent hyperexcitability. Supernatants of biopsies from IBS-D patients caused a persistent decrease in rheobase, consistent with hyperexcitability, when compared to supernatants from HC subjects (rheobase at 30 min: HC, 78.33±4.41 pA, 12 neurons, supernatant from 4 HC; IBS-D, 54.55±4.74 pA, 11 neurons, supernatant from 4 IBS-D; P<0.05; ANOVA, Tukey's multiple comparisons test) (FIG. 6A, B). I-343 (10 μM), Dy4 (dynamin inhibitor, 30 μM) and PD98059 (MEK1 inhibitor, 50 μM) abolished IBS-D-induced hyperexcitability of nociceptors (FIG. 6A-D).
The Queen's University Human Ethics Committee approved human studies. All subjects gave informed consent. Endoscopic biopsies were obtained from the descending colon of 13 adult IBS-D patients (12 female) diagnosed using ROME III criteria for diarrhea predominant IBS and of 12 health controls. All IBS patients had symptoms greater than 1 year and most were greater than 5 years. Celiac disease was excluded by blood test and patients over 40 years with daily diarrhea were biopsied at the time of colonoscopy to exclude microscopic colitis. […] Biopsies (8 samples per patient) were incubated in 250 μl of RPMI medium containing 10% fetal calf serum, penicillin/streptomycin and gentamicin/amphotericin B (95% O2/5% […], 24 h, 37° C.). Supernatants were stored at −80° C. Supernatants from 4-6 patients were pooled and studied in individual experiments.
DRG innervating the colon (T9-T13) were collected from C57BL/6 mice. Ganglia were digested by incubation in collagenase IV (1 mg/ml, Worthington) and dispase (4 mg/ml, Roche) (10 min, 37° C.). DRG were triturated with a fire-polished Pasteur pipette, and further digested (5 min, 37° C.). Neurons were washed, plated onto laminin- (0.017 mg/ml) and poly-D-lysine- (2 mg/ml) coated glass coverslips, and were maintained in F12 medium containing 10% fetal calf serum, penicillin and streptomycin (95% air, 5% CO2, 16 h, 37° C.) until retrieval for electrophysiological studies.
Small-diameter (<30 pF capacitance) neurons were studied because they display characteristics of nociceptors (Valdez-Morales E. E. et al., Am J Gastroenterol 2013, 108(10): 1634-1643). Changes in excitability were quantified by measuring rheobase. Whole-cell perforated patch-clamp recordings were made using Amphotericin B (240 μg/ml, Sigma Aldrich) in current clamp mode at room temperature. The recording chamber was perfused with external solution at 2 ml/min. Recordings were made using Multiclamp 700B or Axopatch 200B amplifiers, digitized by Digidata 1440A or 1322A, and processed using pClamp 10.1 software (Molecular Devices). Solutions had the composition (mM): pipette—K-gluconate 110, KC130, HEPES 10, MgCl2 1, CaCl2 2; pH 7.25 with 1 M KOH; external—NaCl 140, KCl 5 HEPES 10, glucose 10, MgCl2 1, CaCl2 2; pH to 7.3-7.4 with 3 M NaOH. […] Neurons were also preincubated with trypsin (50 nM, 10 min), NE (390 nM, 30 min), CS (500 nM, 60 min), or vehicle (37° C.), and washed. Rheobase was measured at T 0 or T 30 min after washing. To investigate mechanisms of protease-evoked effects, neurons were incubated with I-343 (100 nM, 300 nM, 10 μM, 30 min preincubation), SCH79797 (1 μM, 10 min), Dy4 (30 μM, 30 min), PS2 (15 μM, 30 min), PD98059 (50 μM, 30 min), GF109203X (10 μM, 30 min), or vehicle (preincubation and inclusion throughout). In experiments using the tripartite antagonist, neurons were preincubated with Compound 10 (30 μM, 60 min, 37° C.) or vehicle and washed. […]

Compound	trypsin-stimulated activation of cytosolic ERK [1]	trypsin-stimulated activation of nuclear ERK [1]	initial trypsin-induced hyperexcitability (mouse DRG neurons [2])	persistent trypsin-induced hyperexcitability (mouse DRG neurons [2])	IBS-D-induced hyperexcitability of nociceptors (mouse DRG neurons [3])	rheobase of neurons exposed to HC supernatant (mouse DRG neurons [3])
C=C1C(=O)N[C@@H](C)C(=O)N(C)[C@@H](C)C(=O)N[C@@H]([C@H](OC(=O)[C@@H](NC(=O)CC)[C@H](O)C(C)C)C(C)C)C(=O)N(C)[C@@H]([C@@H](C)OC)C(=O)O[C@H](C(C)C)[C@H](NC(C)=O)C(=O)O[C@H](Cc2ccccc2)C(=O)N1C [UBO-QIC] (Ac-[X1][dPhLac][NMeDha]A[NMeA][X1](Leu(3R-OH,Nα-propionyl))[NMeT](Me); ester 1-C)	suppressed	inhibited	–	–	–	–
COc1ccc2c(c1)c(C1=C(c3c[nH]c4ccccc34)C(=O)NC1=O)cn2CCCN(C)C [Compound G66983]	suppressed	inhibited	–	–	–	–
COc1cc2ncnc(Nc3cccc(Cl)c3)c2cc1OC [AG1478]	suppressed	–	–	–	–	–
COc1cccc(-c2cc(=O)c3ccccc3o2)c1N [PD98059]	–	–	did not affect	prevented	abolished	no effect
